Source: ChEMBL document CHEMBL4190390, “Rational Design of Novel 1,3-Oxazine Based β-Secretase (BACE1) Inhibitors: Incorporation of a Double Bond To Reduce P-gp Efflux Leading to Robust Aβ Reduction in the Brain” (J Med Chem, 2018)

Tests used:
[1] = Dissociation constant, pKa of the compound by capillary electrophoresis method; format: physicochemical
[2] = Drug degradation of the compound at 40 degC/89 % relative humidity; format: physicochemical; details: read-out: Drug degradation

pKa [1]	degraded [2] [%]	SMILES
9.8	–	C[C@@]1(c2ccccc2F)CCOC(N)=N1
–	0.06	C[C@@]1(c2cc(NC(=O)c3ccc(C#N)cn3)ccc2F)C=C(CF)OC(N)=N1
